Assay results: US10392348B2, “2-oxo-3,4-dihydroquinoline compounds as plant growth regulators” (Syngenta Participations AG, priority 2015, dated 2019)
Like-named read-outs stand apart in the source and are kept apart here.

How the values were obtained:
[1] = system: corn plants (variety NK OCTET); assay: Reduced plant water use in corn (foliar spray, repeated weighing of pots); type: in vivo; details: Zea mays, corn plants sprayed at 500 μM, average of 6 pots
Description: Compounds were tested for their effect on reducing plant water use as follows. The compounds were applied by foliar spray to 12 day old corn plants (variety NK OCTET) grown in controlled environment plant growth chambers. All compounds were applied using an emulsifiable concentrate (EC) formulation that was diluted to the desired concentrations with water containing 0.4% of the adjuvant rape seed methyl ester. Plant water use during the day was assessed by repeated weighing of the pots in which the plants were grown before and after application of the compounds at the indicated times (expressed in days after application (DAA)). The water use data before application was used to correct any differences in water use arising due to non-treatment effects (e.g. due to differences in plant size). The untransformed water use values were subjected to an analysis of covariance, fitting the effect of treatment and using the baseline water use 1 day before application as a covariate. Application of the chemicals (0 DAA) takes place approximately between 08:00 and 09:30 a.m. WU is measured within day time (chamber light is on 06:00 to 20:00) at these timepoints: 0 DAA a.m. (10:30-12:50), 0 DAA p.m. (14:00-19:50), 1 DAA a.m. (07:30-12:50), 1 DAA p.m. (14:00-19:50), 2 DAA a.m. (07:30-12:50) and 2 DAA p.m. (14:00-19:50). The cumulative total WU (0-2.5 DAA) is calculated by summing the WU data mentioned above.

[2] = 0 h, water use during day time vs negative control, 0 DAA a.m. (10:30-12:50), read-out: % WU 0 DAA AM
[3] = 0 h, water use during day time vs negative control, 0 DAA p.m. (14:00-19:50), read-out: % WU 0DAA PM
[4] = 24 h, water use during day time vs negative control, 1 DAA a.m. (07:30-12:50), read-out: % WU 1DAA AM
[5] = 24 h, water use during day time vs negative control, 1 DAA p.m. (14:00-19:50), read-out: % WU 1DAA PM
[6] = 48 h, water use during day time vs negative control, 2 DAA a.m. (07:30-12:50), read-out: % WU 2 DAA AM
[7] = 48 h, water use during day time vs negative control, 2 DAA p.m. (14:00-19:50), read-out: % WU 2 DAA PM
[8] = 60 h, cumulative total water use 0-2.5 DAA (sum of the time points) vs negative control, read-out: % WU Total 0 to 2.5 DAA

Q: With `CCCN1C(=O)CCc2cc(CNS(=O)(=O)c3ccc(Cl)cc3)ccc21` [Compound 3.004, 4-chloro-N-[(2-oxo-1-propyl-3,4-dihydroquinolin-6-yl)methyl]benzenesulfonamide] as the compound, how does the change in vivo at 500 µM [1, 2] read?
A: Its change in vivo at 500 µM is -17.3%.

Q: And the change in vivo at 500 µM [1, 3]?
A: The change in vivo at 500 µM was -12.5%.

Q: What about the change in vivo at 500 µM [1, 4] of the same compound?
A: Its change in vivo at 500 µM is -14.1%.

Q: What about the change in vivo at 500 µM [1, 5] of the same compound?
A: The change in vivo at 500 µM was -12.9%.

Q: And the change in vivo at 500 µM [1, 6]?
A: The change in vivo at 500 µM was -11.8%.

Q: And the change in vivo at 500 µM [1, 7]?
A: The change in vivo at 500 µM was -10.7%.

Q: And the change in vivo at 500 µM [1, 8]?
A: Its change in vivo at 500 µM is -12.8%.

Q: What about the melting point of the same compound?
A: Its melting point is 138 to 139 °C.

Q: Which change in vivo at 500 µM [1, 2] does the source give for `CCN1C(=O)CCc2cc(CNS(=O)(=O)/C=C/c3ccccc3)ccc21` [Compound 2.051, (E)-N-[(1-ethyl-2-oxo-3,4-dihydroquinolin-6-yl)methyl]-2-phenyl-ethenesulfonamide] here?
A: The change in vivo at 500 µM was -13.2%.

Q: What about the change in vivo at 500 µM [1, 3] of the same compound?
A: The change in vivo at 500 µM was -8.5%.

Q: And the change in vivo at 500 µM [1, 4]?
A: Its change in vivo at 500 µM is -10.7%.

Q: What about the change in vivo at 500 µM [1, 5] of the same compound?
A: The change in vivo at 500 µM was -8.6%.

Q: And the change in vivo at 500 µM [1, 6]?
A: Its change in vivo at 500 µM is -8.7%.

Q: What about the change in vivo at 500 µM [1, 7] of the same compound?
A: Its change in vivo at 500 µM is -6.5%.

Q: And the change in vivo at 500 µM [1, 8]?
A: Its change in vivo at 500 µM is -9.1%.

Q: And the melting point?
A: Its melting point is 134 to 137 °C.

Q: With `CCCN1C(=O)CCc2cc(CNS(=O)(=O)/C=C/c3ccccc3)ccc21` [Compound 3.051, (E)-N-[(2-oxo-1-propyl-3,4-dihydroquinolin-6-yl)methyl]-2-phenyl-ethenesulfonamide] as the compound, how does the change in vivo at 500 µM [1, 2] read?
A: Its change in vivo at 500 µM is -11.2%.

Q: What about the change in vivo at 500 µM [1, 3] of the same compound?
A: The change in vivo at 500 µM was -6.4%.

Q: What about the change in vivo at 500 µM [1, 4] of the same compound?
A: The change in vivo at 500 µM was -8.1%.

Q: And the change in vivo at 500 µM [1, 5]?
A: Its change in vivo at 500 µM is -5.5%.

Q: And the change in vivo at 500 µM [1, 6]?
A: Its change in vivo at 500 µM is -5.4%.

Q: And the change in vivo at 500 µM [1, 7]?
A: The change in vivo at 500 µM was -4.3%.

Q: What about the change in vivo at 500 µM [1, 8] of the same compound?
A: The change in vivo at 500 µM was -6.2%.

Q: And the melting point?
A: The melting point was 165 to 168 °C.

Q: With `CCCN1C(=O)CCc2cc(CNS(=O)(=O)c3ccccc3Br)ccc21` [Compound 3.017, 2-bromo-N-[(2-oxo-1-propyl-3,4-dihydroquinolin-6-yl)methyl]benzenesulfonamide] as the compound, how does the change in vivo at 500 µM [1, 2] read?
A: Its change in vivo at 500 µM is -5.8%.

Q: What about the change in vivo at 500 µM [1, 3] of the same compound?
A: The change in vivo at 500 µM was -3.1%.

Q: And the change in vivo at 500 µM [1, 4]?
A: Its change in vivo at 500 µM is -3.1%.

Q: And the change in vivo at 500 µM [1, 5]?
A: The change in vivo at 500 µM was -2.5%.

Q: And the change in vivo at 500 µM [1, 6]?
A: The change in vivo at 500 µM was -1.8%.

Q: What about the change in vivo at 500 µM [1, 7] of the same compound?
A: Its change in vivo at 500 µM is -2.1%.

Q: And the change in vivo at 500 µM [1, 8]?
A: Its change in vivo at 500 µM is -2.7%.

Q: And the melting point?
A: Its melting point is 157 to 159 °C.

Q: For `CCCN1C(=O)CCc2cc(CNS(=O)(=O)/C=C/c3cccc(Cl)c3)ccc21` [Compound 3.069, (E)-2-(3-chlorophenyl)-N-[(2-oxo-1-propyl-3,4-dihydroquinolin-6-yl)methyl]ethenesulfonamide], which change in vivo at 500 µM [1, 2] is on record?
A: The change in vivo at 500 µM was -8.1%.

Q: And the change in vivo at 500 µM [1, 3]?
A: The change in vivo at 500 µM was -4.1%.

Q: What about the change in vivo at 500 µM [1, 4] of the same compound?
A: Its change in vivo at 500 µM is -6.1%.

Q: What about the change in vivo at 500 µM [1, 5] of the same compound?
A: Its change in vivo at 500 µM is -5.5%.

Q: And the change in vivo at 500 µM [1, 6]?
A: Its change in vivo at 500 µM is -4.8%.

Q: And the change in vivo at 500 µM [1, 7]?
A: Its change in vivo at 500 µM is -3.8%.

Q: What about the change in vivo at 500 µM [1, 8] of the same compound?
A: The change in vivo at 500 µM was -5%.

Q: What about the melting point of the same compound?
A: The melting point was 129 to 133 °C.

Q: Which results are given for `CCN1C(=O)CCc2cc(CNS(=O)(=O)/C=C/c3cccc(Br)c3)ccc21` [Compound 2.070, (E)-2-(3-bromophenyl)-N-[(1-ethyl-2-oxo-3,4-dihydroquinolin-6-yl)methyl]ethenesulfonamide]?
A: change in vivo at 500 µM [1, 2]: -8.1%; change in vivo at 500 µM [1, 3]: -4.1%; change in vivo at 500 µM [1, 4]: -6.1%; change in vivo at 500 µM [1, 5]: -5.5%; change in vivo at 500 µM [1, 6]: -4.8%; change in vivo at 500 µM [1, 7]: -3.8%; change in vivo at 500 µM [1, 8]: -5%; melting point: 144 to 147 °C

Q: Which change in vivo at 500 µM [1, 2] does the source give for `CCCN1C(=O)CCc2cc(CNS(=O)(=O)/C=C/c3ccc(Br)cc3)ccc21` [Compound 3.052, (E)-2-(4-bromophenyl)-N-[(2-oxo-1-propyl-3,4-dihydroquinolin-6-yl)methyl]ethenesulfonamide] here?
A: The change in vivo at 500 µM was -9.6%.

Q: And the change in vivo at 500 µM [1, 3]?
A: The change in vivo at 500 µM was -4.6%.

Q: And the change in vivo at 500 µM [1, 4]?
A: Its change in vivo at 500 µM is -4.5%.

Q: What about the change in vivo at 500 µM [1, 5] of the same compound?
A: Its change in vivo at 500 µM is -4.5%.

Q: And the change in vivo at 500 µM [1, 6]?
A: The change in vivo at 500 µM was -2.2%.

Q: And the change in vivo at 500 µM [1, 7]?
A: The change in vivo at 500 µM was -2.5%.

Q: What about the change in vivo at 500 µM [1, 8] of the same compound?
A: The change in vivo at 500 µM was -4.1%.

Q: What about the melting point of the same compound?
A: Its melting point is 150 to 152 °C.

Q: With `CCN1C(=O)CCc2cc(CNS(=O)(=O)/C=C/c3cccc(Cl)c3)ccc21` [Compound 2.069, (E)-2-(3-chlorophenyl)-N-[(1-ethyl-2-oxo-3,4-dihydroquinolin-6-yl)methyl]ethenesulfonamide] as the compound, how does the change in vivo at 500 µM [1, 2] read?
A: The change in vivo at 500 µM was -6.5%.

Q: What about the change in vivo at 500 µM [1, 3] of the same compound?
A: Its change in vivo at 500 µM is -3.5%.

Q: What about the change in vivo at 500 µM [1, 4] of the same compound?
A: The change in vivo at 500 µM was -3.3%.

Q: What about the change in vivo at 500 µM [1, 5] of the same compound?
A: Its change in vivo at 500 µM is -3.7%.

Q: What about the change in vivo at 500 µM [1, 6] of the same compound?
A: Its change in vivo at 500 µM is -2.1%.

Q: And the change in vivo at 500 µM [1, 7]?
A: Its change in vivo at 500 µM is -1.9%.

Q: What about the change in vivo at 500 µM [1, 8] of the same compound?
A: The change in vivo at 500 µM was -3.2%.

Q: And the melting point?
A: Its melting point is 149 to 151 °C.
